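96-well plates; 48 h exposure; 5 concentrations. Endpoints by linear interpolation between flanking doses. Not reached: highest tested concentration assigned. Abbreviation: GI50, concentration required for 50% inhibition of growth.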 Activity calls are given as the source filed them. No stated cut-off is given here; in the data, active = GI50 up to about 1.1 µM and inactive = higher.
Legend:
Experiment in all cases: NCI tumour cell line growth inhibition, 48 h
A498 = system: A498
M14 = system: M14
OVCAR-3 = system: OVCAR-3
786-0 = system: 786-0
HCT-116 = system: HCT-116
NCI/ADR-RES = system: NCI/ADR-RES
RPMI-8226 = system: RPMI-8226
KM12 = system: KM12
NCI-H23 = system: NCI-H23
MOLT-4 = system: MOLT-4
OVCAR-8 = system: OVCAR-8
SNB-75 = system: SNB-75
A549 = system: A549
NCI-H226 = system: NCI-H226
IGROV-1 = system: IGROV-1
CAKI-1 = system: CAKI-1
COLO 205 = system: COLO 205
K562 = system: K562
MCF7 = system: MCF7
MDA-MB-231 = system: MDA-MB-231
UACC-62 = system: UACC-62
SW-620 = system: SW-620
RXF 393 = system: RXF 393
MDA-MB-435 = system: MDA-MB-435
ACHN = system: ACHN
SK-OV-3 = system: SK-OV-3
Malme-3M = system: Malme-3M
HOP-92 = system: HOP-92
SK-MEL-2 = system: SK-MEL-2
NCI-H460 = system: NCI-H460
OVCAR-4 = system: OVCAR-4
SF-295 = system: SF-295
T47D = system: T47D
UO-31 = system: UO-31
PC-3 = system: PC-3
HCC 2998 = system: HCC 2998
U-251 = system: U-251
SNB-19 = system: SNB-19
SK-MEL-28 = system: SK-MEL-28
MDA-N = system: MDA-N
DU-145 = system: DU-145
TK-10 = system: TK-10
BT-549 = system: BT-549
OVCAR-5 = system: OVCAR-5
EKVX = system: EKVX
LOX IMVI = system: LOX IMVI
SR = system: SR
HOP-62 = system: HOP-62
HCT-15 = system: HCT-15
Hs-578T = system: Hs-578T
SF-268 = system: SF-268
UACC-257 = system: UACC-257
SN12C = system: SN12C
CCRF-CEM = system: CCRF-CEM
HT-29 = system: HT-29
NCI-H522 = system: NCI-H522
SK-MEL-5 = system: SK-MEL-5

Structure (SMILES): COC(=O)C1=C(C(=O)OC)c2cc(OC)ccc2C(C(=S)N(C)C)S1 (stereo not given)
- GI50 (A498): > 100 µM (inactive)
- GI50 (M14): > 100 µM (inactive)
- GI50 (OVCAR-3): > 100 µM (inactive)
- GI50 (786-0): > 100 µM (inactive)
- GI50 (HCT-116): > 100 µM (inactive)
- GI50 (NCI/ADR-RES): > 100 µM (inactive)
- GI50 (RPMI-8226): > 100 µM (inactive)
- GI50 (KM12): > 100 µM (inactive)
- GI50 (NCI-H23): > 100 µM (inactive)
- GI50 (MOLT-4): > 100 µM (inactive)
- GI50 (OVCAR-8): > 100 µM (inactive)
- GI50 (SNB-75): > 100 µM (inactive)
- GI50 (A549): > 100 µM (inactive)
- GI50 (NCI-H226): > 100 µM (inactive)
- GI50 (IGROV-1): > 100 µM (inactive)
- GI50 (CAKI-1): 99.1 µM (inactive)
- GI50 (COLO 205): > 100 µM (inactive)
- GI50 (K562): > 100 µM (inactive)
- GI50 (MCF7): > 100 µM (inactive)
- GI50 (MDA-MB-231): > 100 µM (inactive)
- GI50 (UACC-62): > 100 µM (inactive)
- GI50 (SW-620): > 100 µM (inactive)
- GI50 (RXF 393): > 100 µM (inactive)
- GI50 (MDA-MB-435): > 100 µM (inactive)
- GI50 (ACHN): > 100 µM (inactive)
- GI50 (SK-OV-3): > 100 µM (inactive)
- GI50 (Malme-3M): > 100 µM (inactive)
- GI50 (HOP-92): 0.0111 µM (active)
- GI50 (SK-MEL-2): > 100 µM (inactive)
- GI50 (NCI-H460): > 100 µM (inactive)
- GI50 (OVCAR-4): > 100 µM (inactive)
- GI50 (SF-295): > 100 µM (inactive)
- GI50 (T47D): > 100 µM (inactive)
- GI50 (UO-31): > 100 µM (inactive)
- GI50 (PC-3): > 100 µM (inactive)
- GI50 (HCC 2998): > 100 µM (inactive)
- GI50 (U-251): > 100 µM (inactive)
- GI50 (SNB-19): > 100 µM (inactive)
- GI50 (SK-MEL-28): > 100 µM (inactive)
- GI50 (MDA-N): > 100 µM (inactive)
- GI50 (DU-145): > 100 µM (inactive)
- GI50 (TK-10): > 100 µM (inactive)
- GI50 (BT-549): 19.2 µM (inactive)
- GI50 (OVCAR-5): > 100 µM (inactive)
- GI50 (EKVX): > 100 µM (inactive)
- GI50 (LOX IMVI): > 100 µM (inactive)
- GI50 (SR): > 100 µM (inactive)
- GI50 (HOP-62): > 100 µM (inactive)
- GI50 (HCT-15): > 100 µM
- GI50 (Hs-578T): > 100 µM (inactive)
- GI50 (SF-268): > 100 µM (inactive)
- GI50 (UACC-257): > 100 µM (inactive)
- GI50 (SN12C): > 100 µM (inactive)

Structure (SMILES): O=C1Nc2ccccc2/C1=C1\C(=O)Nc2ccccc21 [ISOINDIGO]
- GI50 (A498): 20.9 µM (inactive)
- GI50 (M14): 32.1 µM (inactive)
- GI50 (OVCAR-3): 19.3 µM (inactive)
- GI50 (786-0): 9.42 µM (inactive)
- GI50 (HCT-116): 17 µM (inactive)
- GI50 (NCI/ADR-RES): 17.3 µM (inactive)
- GI50 (RPMI-8226): 17.3 µM (inactive)
- GI50 (KM12): 21.6 µM (inactive)
- GI50 (NCI-H23): 20.9 µM (inactive)
- GI50 (MOLT-4): 3.59 µM (inactive)
- GI50 (OVCAR-8): 18.8 µM (inactive)
- GI50 (SNB-75): 14.1 µM (inactive)
- GI50 (A549): 27.4 µM (inactive)
- GI50 (NCI-H226): > 100 µM (inactive)
- GI50 (IGROV-1): 10.3 µM (inactive)
- GI50 (CAKI-1): 19.7 µM (inactive)
- GI50 (COLO 205): 21.9 µM (inactive)
- GI50 (K562): 7.48 µM (inactive)
- GI50 (MCF7): 4.52 µM (inactive)
- GI50 (MDA-MB-231): 27.8 µM (inactive)
- GI50 (UACC-62): 17.3 µM (inactive)
- GI50 (SW-620): 4.57 µM (inactive)
- GI50 (RXF 393): 3.56 µM (inactive)
- GI50 (MDA-MB-435): 11.9 µM (inactive)
- GI50 (ACHN): 12.6 µM (inactive)
- GI50 (SK-OV-3): 59.7 µM (inactive)
- GI50 (Malme-3M): 13.2 µM (inactive)
- GI50 (CCRF-CEM): 2.9 µM (inactive)
- GI50 (HOP-92): 20.6 µM (inactive)
- GI50 (SK-MEL-2): 18.5 µM (inactive)
- GI50 (NCI-H460): 21.6 µM (inactive)
- GI50 (OVCAR-4): 10 µM (inactive)
- GI50 (SF-295): 60.3 µM (inactive)
- GI50 (HT-29): 4.98 µM (inactive)
- GI50 (T47D): 1.35 µM (inactive)
- GI50 (UO-31): 13.6 µM (inactive)
- GI50 (PC-3): 9.75 µM (inactive)
- GI50 (HCC 2998): 23.2 µM (inactive)
- GI50 (U-251): 11.4 µM (inactive)
- GI50 (SNB-19): 22.5 µM (inactive)
- GI50 (SK-MEL-28): 91.2 µM (inactive)
- GI50 (MDA-N): 24.5 µM (inactive)
- GI50 (DU-145): 12.9 µM (inactive)
- GI50 (NCI-H522): 10.3 µM (inactive)
- GI50 (TK-10): 31.6 µM (inactive)
- GI50 (BT-549): 25.6 µM (inactive)
- GI50 (OVCAR-5): 3.48 µM (inactive)
- GI50 (EKVX): 20.7 µM (inactive)
- GI50 (LOX IMVI): 18.6 µM (inactive)
- GI50 (SR): 2.82 µM (inactive)
- GI50 (HOP-62): 25 µM (inactive)
- GI50 (HCT-15): 3.84 µM
- GI50 (Hs-578T): 49.2 µM (inactive)
- GI50 (SK-MEL-5): 59.7 µM (inactive)
- GI50 (SF-268): 31.2 µM (inactive)
- GI50 (UACC-257): 31.1 µM (inactive)
- GI50 (SN12C): 19 µM (inactive)
